Literature values in patent publication US8765149B2, “Low-oil pharmaceutical emulsion compositions comprising progestogen” (Besins Healthcare Luxembourg Sarl, priority 2010, dated 2014).

Tested on: TBI patients
Conditions: two recent clinical trials

Compound: CC(=O)[C@H]1CC[C@H]2[C@@H]3CCC4=CC(=O)CC[C@]4(C)[C@H]3CC[C@]12C [progesterone, pregn-4-ene-3,20-dione]
- mortality of TBI patients: decreased mortality
- safety in TBI patients: safe and well tolerated
